{"source": "paper PMC8232621", "about": "“Antimicrobial Activity of a Library of Thioxanthones and Their Potential as Efflux Pump Inhibitors” (Pharmaceuticals, 2021)", "tested_on": "the used strains", "test": "Antibacterial activity (MIC), strains not specified", "type": "cell-based", "details": "concentrations tested; results not shown", "description": "The minimum inhibitory concentration (MIC) for each compound was determined by broth microdilution method in a 96-well plate according to the Clinical and Laboratory Standard Institute (CLSI) guidelines. The medium used was MHB II. […] DMSO was used in subinhibitory concentrations (1% v/v). The MIC was determined by visual inspection."}
{"smiles": "NS(=O)(=O)c1ccc(C(=O)O)cc1", "note": "[4-sulfamoylbenzoic acid]", "values": [{"measurement": "MIC", "value": "did not display an observable MIC"}]}
